Reference: patent US8889712B2, “IAP antagonists” (Bristol-Myers Squibb Company, priority 2012, dated 2014)
Read-outs that look alike come from different tables or passages of the source.

What was measured:
XIAP BIR3 = target: T1, XIAP BIR3 (Homo sapiens, UniProt P98170); assay: XIAP-BIR3/SMAC Homogeneous Time Resolved Fluorescence (HTRF) Assay; assay type: binding
T1 construct: His-BIR3 (241-356, XIAP)
Procedure, shortened: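 Competition HTRF between XIAP-BIR3 and SMAC; reaction 60 min at room temperature, then anti-6×His-terbium Fab detection for a further 30 min.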

XIAP BIR2-3 = target: T2, XIAP BIR2-3 (Homo sapiens, UniProt P98170, C202A/C213G); assay: XIAP-BIR2-3 dimeric SMAC Peptide Homogeneous Time Resolved Fluorescence (HTRF) Assay; assay type: binding
T2 construct: His-BIR2-3 (125-356, C202A/C213G, XIAP)
Experimental: B. […] Assays were performed in black, flat-bottom, 384-well plates. […] Compounds were dissolved at 3 mM in dimethylsulfoxide (DMSO) and evaluated at eleven serially diluted concentrations. IC50 and Ki values were derived by non-linear regression analysis.

[1] = 1 nM N-His-BIR3 (241-356, XIAP), 5 nM fluorescein labeled SMAC peptide, HTRF signal, read-out: XIAP BIR3 IC50
[2] = 0.5 nM N-His-BIR2-3 (125-356, C202A/C213G, XIAP), 20 nM fluorescein labeled dimeric SMAC peptide, HTRF signal, read-out: XIAP BIR2-3 IC50

T2 sequence (P98170 125-356 C202A/C213G): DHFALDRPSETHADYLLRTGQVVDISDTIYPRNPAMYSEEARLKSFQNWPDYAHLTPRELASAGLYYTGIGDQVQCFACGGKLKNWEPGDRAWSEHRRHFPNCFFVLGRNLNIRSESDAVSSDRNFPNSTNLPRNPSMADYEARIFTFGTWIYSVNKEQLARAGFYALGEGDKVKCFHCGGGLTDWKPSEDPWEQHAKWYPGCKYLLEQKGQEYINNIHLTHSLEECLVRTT
T1 sequence (P98170 241-356): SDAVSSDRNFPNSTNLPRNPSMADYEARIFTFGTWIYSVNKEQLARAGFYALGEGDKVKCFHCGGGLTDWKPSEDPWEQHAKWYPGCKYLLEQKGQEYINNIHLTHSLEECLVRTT

Row | Compound | IC50 (XIAP BIR3; [1]) [nM] | IC50 (XIAP BIR2-3; [2]) [nM] | IC50 (XIAP BIR3) [nM] | IC50 (XIAP BIR2-3) [nM]
1 | CN[C@@H](C)C(=O)N[C@H](C(=O)N1Cc2cc(C3C[C@@H](C(=O)N[C@H](CO)Cc4ccccc4)N(C(=O)[C@@H](NC(=O)[C@H](C)NC)C(C)(C)C)C3)ccc2C[C@H]1C(=O)NC1CCCc2ccccc21)C(C)(C)C (stereo in doubt) [Example 74, (S)-2-((S)-3,3-Dimethyl-2-((S)-2-(methylamino)propanamido)butanoyl)-7-((3S,5S)-1-((S)-3,3-dimethyl-2-((S)-2-(methylamino)propanamido)butanoyl)-5-(((S)-1-hydroxy-3-phenylpropan-2-yl)carbamoyl)pyrrolidin-3-yl)-N-((R)-1,2,3,4-tetrahydronaphthalen-1-yl)-1,2,3,4-tetrahydroisoquinoline-3-carboxamide] | 13.6 | 2.6 | – | –
2 | CN[C@@H](C)C(=O)N[C@H](C(=O)N1C[C@@H](c2ccc3c(c2)CN(C(=O)[C@@H](NC(=O)[C@H](C)NC)C(C)(C)C)[C@H](C(=O)N[C@@H]2CCCc4ccccc42)C3)C[C@H]1C(=O)N[C@@H](Cc1ccccc1)C(=O)N(C)CCC(C)C)C(C)(C)C [Example 53, (S)-2-((S)-3,3-Dimethyl-2-((S)-2-(methylamino)propanamido)butanoyl)-7-((3R,5S)-1-((S)-3,3-dimethyl-2-((S)-2-(methylamino)propanamido)butanoyl)-5-(((S)-1-(isopentyl(methyl)amino)-1-oxo-3-phenylpropan-2-yl)carbamoyl)pyrrolidin-3-yl)-N-((R)-1,2,3,4-tetrahydronaphthalen-1-yl)-1,2,3,4-tetrahydroisoquinoline-3-carboxamide] | 53.9 | 86.9 | – | –
3 | CN[C@@H](C)C(=O)N[C@H](C(=O)N1C[C@@H](c2ccc3c(c2)CN(C(=O)[C@@H](NC(=O)[C@H](C)NC)C(C)(C)C)[C@H](C(=O)N[C@@H]2CCCc4ccccc42)C3)C[C@H]1C(=O)N[C@@H](Cc1ccccc1)C(=O)Nc1ccc(-n2cncn2)cc1)C(C)(C)C [Example 65, (S)-7-((3R,5S)-5-(((S)-1-((4-(1H-1,2,4-Triazol-1-yl)phenyl)amino)-1-oxo-3-phenylpropan-2-yl)carbamoyl)-1-((S)-3,3-dimethyl-2-((S)-2-(methylamino)propanamido)butanoyl)pyrrolidin-3-yl)-2-((S)-3,3-dimethyl-2-((S)-2-(methylamino)propanamido)butanoyl)-N-((R)-1,2,3,4-tetrahydronaphthalen-1-yl)-1,2,3,4-tetrahydroisoquinoline-3-carboxamide] | 5.4 | 1.6 | – | –
4 | CN[C@@H](C)C(=O)N[C@H](C(=O)N1Cc2cc(C(=O)N[C@H]3C[C@@H](C(=O)N[C@@H]4CCCc5ccccc54)N(C(=O)[C@@H](NC(=O)[C@H](C)NC)C(C)(C)C)C3)ccc2C[C@H]1C(=O)N[C@@H]1CCCc2ccccc21)C(c1ccccc1)c1ccccc1 [Example 89, (S)-N^7-((3S,5S)-1-((S)-3,3-dimethyl-2-((S)-2-(methylamino)propanamido)butanoyl)-5-(((R)-1,2,3,4-tetrahydronaphthalen-1-yl)carbamoyl)pyrrolidin-3-yl)-2-((S)-2-((S)-2-(methylamino)propanamido)-3,3-diphenylpropanoyl)-N^3-((R)-1,2,3,4-tetrahydronaphthalen-1-yl)-1,2,3,4-tetrahydroisoquinoline-3,7-dicarboxamide] | 37.8 | 360 | – | –
5 | CN[C@@H](C)C(=O)N[C@H](C(=O)N1Cc2cc([C@H]3C[C@@H](C(=O)N[C@@H]4CCCc5ccccc54)N(C(=O)[C@@H](NC(=O)[C@H](C)NC)C(C)(C)C)C3)ccc2C[C@H]1C(=O)N[C@@H]1CCCc2cc(OC)ccc21)C(C)(C)C [Example 37, (S)-2-((S)-3,3-Dimethyl-2-((S)-2-(methylamino)propanamido)butanoyl)-7-((3R,5S)-1-((S)-3,3-dimethyl-2-((S)-2-(methylamino)propanamido)butanoyl)-5-(((R)-1,2,3,4-tetrahydronaphthalen-1-yl)carbamoyl)pyrrolidin-3-yl)-N-((R)-6-methoxy-1,2,3,4-tetrahydronaphthalen-1-yl)-1,2,3,4-tetrahydroisoquinoline-3-carboxamide] | 2.9 | 1.8 | – | –
6 | CN[C@@H](C)C(=O)N[C@H](C(=O)N1C[C@@H](c2ccc3c(c2)CN(C(=O)[C@@H](NC(=O)[C@H](C)NC)C(C)(C)C)[C@H](C(=O)N[C@@H]2CCCc4ccccc42)C3)C[C@H]1C(=O)N[C@@H](Cc1ccccc1)C(=O)NS(=O)(=O)c1ccccc1)C(C)(C)C [Example 48, (S)-2-((S)-3,3-Dimethyl-2-((S)-2-(methylamino)propanamido)butanoyl)-7-((3R,5S)-1-((S)-3,3-dimethyl-2-((S)-2-(methylamino)propanamido)butanoyl)-5-(((S)-1-oxo-3-phenyl-1-(phenylsulfonamido)propan-2-yl)carbamoyl)pyrrolidin-3-yl)-N-((R)-1,2,3,4-tetrahydronaphthalen-1-yl)-1,2,3,4-tetrahydroisoquinoline-3-carboxamide] | – | – | 0.8 | 0.7
7 | CN[C@@H](C)C(=O)N[C@H](C(=O)N1Cc2cc([C@H]3C[C@@H](C(=O)N[C@@H]4CCCc5ccccc54)N(C(=O)[C@@H](NC(=O)[C@H](C)NC)C(C)(C)C)C3)ccc2C[C@H]1C(=O)N[C@@H](Cc1ccccc1)c1noc(C)n1)C(C)(C)C [Example 45, (S)-2-((S)-3,3-Dimethyl-2-((S)-2-(methylamino)propanamido)butanoyl)-7-((3R,5S)-1-((S)-3,3-dimethyl-2-((S)-2-(methylamino)propanamido)butanoyl)-5-(((R)-1,2,3,4-tetrahydronaphthalen-1-yl)carbamoyl)pyrrolidin-3-yl)-N—((S)-1-(5-methyl-1,2,4-oxadiazol-3-yl)-2-phenylethyl)-1,2,3,4-tetrahydroisoquinoline-3-carboxamide] | 9.2 | 4.2 | – | –
8 | CN[C@@H](C)C(=O)N[C@H](C(=O)N1Cc2cc([C@H]3C[C@@H](C(=O)N[C@@H](Cc4ccc5ccccc5c4)C(=O)O)N(C(=O)[C@@H](NC(=O)[C@H](C)NC)C(C)(C)C)C3)ccc2C[C@H]1C(=O)N[C@@H](Cc1ccc2ccccc2c1)C(=O)O)C(C)(C)C [Example 83, (S)-2-((S)-7-((3R,5S)-5-(((S)-1-Carboxy-2-(naphthalen-2-yl)ethyl)carbamoyl)-1-((S)-3,3-dimethyl-2-((S)-2-(methylamino)propanamido)butanoyl)pyrrolidin-3-yl)-2-((S)-3,3-dimethyl-2-((S)-2-(methylamino)propanamido)butanoyl)-1,2,3,4-tetrahydroisoquinoline-3-carboxamido)-3-(naphthalen-2-yl)propanoic acid] | 19.2 | 26.2 | – | –
9 | CN[C@@H](C)C(=O)N[C@H](C(=O)N1Cc2cc([C@H]3C[C@@H](C(=O)N[C@@H](Cc4ccc5ccccc5c4)C(=O)OC)N(C(=O)[C@@H](NC(=O)[C@H](C)NC)C(C)(C)C)C3)ccc2C[C@H]1C(=O)N[C@@H](Cc1ccc2ccccc2c1)C(=O)OC)C(C)(C)C [Example 82, (S)-Methyl 2-((2S,4R)-1-((S)-3,3-dimethyl-2-((S)-2-(methylamino)propanamido)butanoyl)-4-((S)-2-((S)-3,3-dimethyl-2-((S)-2-(methylamino)propanamido)butanoyl)-3-(((S)-1-methoxy-3-(naphthalen-2-yl)-1-oxopropan-2-yl)carbamoyl)-1,2,3,4-tetrahydroisoquinolin-7-yl)pyrrolidine-2-carboxamido)-3-(naphthalen-2-yl)propanoate] | 111 | 68.2 | – | –
10 | CN[C@@H](C)C(=O)N[C@H](C(=O)N1C[C@@H](NC(=O)c2ccc3c(c2)CN(C(=O)[C@@H](NC(=O)[C@@H](NC)C(C)C)C(C)(C)C)[C@H](C(=O)N[C@@H]2CCCc4ccccc42)C3)C[C@H]1C(=O)N[C@@H]1CCCc2ccccc21)C(C)(C)C [Example 4, (S)-N^7-((3S,5S)-1-((S)-3,3-Dimethyl-2-((S)-2-(methylamino)propanamido)butanoyl)-5-(((R)-1,2,3,4-tetrahydronaphthalen-1-yl)carbamoyl)pyrrolidin-3-yl)-2-((S)-3,3-dimethyl-2-((S)-3-methyl-2-(methylamino)butanamido)butanoyl)-N^3-((R)-1,2,3,4-tetrahydronaphthalen-1-yl)-1,2,3,4-tetrahydroisoquinoline-3,7-dicarboxamide] | 10 | 11 | – | –
11 | CN[C@@H](C)C(=O)N[C@H](C(=O)N1Cc2cc([C@H]3C[C@@H](C(=O)N[C@@H]4CCCc5ccccc54)N(C(=O)[C@@H](NC(=O)[C@H](C)NC)C(C)(C)C)C3)ccc2C[C@H]1C(=O)N[C@@H]1CCCc2ccccc21)C1CCOCC1 [Example 24, (S)-7-((3R,5S)-1-((S)-3,3-Dimethyl-2-((S)-2-(methylamino)propanamido)butanoyl)-5-(((R)-1,2,3,4-tetrahydronaphthalen-1-yl)carbamoyl)pyrrolidin-3-yl)-2-((S)-2-((S)-2-(methylamino)propanamido)-2-(tetrahydro-2H-pyran-4-yl)acetyl)-N—((R)-1,2,3,4-tetrahydronaphthalen-1-yl)-1,2,3,4-tetrahydroisoquinoline-3-carboxamide] | 3 | 1 | – | –
